Results on 2 compounds are retold here after ChEMBL document CHEMBL4680145, “Expansion of chemical space based on a pyrrolo[1,2-a]pyrazine core: Synthesis and its anticancer activity in prostate cancer and breast cancer cells” (Eur J Med Chem, 2020).

Calls of active or inactive are those of the source. No cut-off for these calls is given here.

For test [1], the system named is MCF7. Briefly: Cytotoxicity against human MCF7 cells assessed as reduction cell viability incubated for 48 hrs by MTS assay. It is filed as functional, cell-based. Conditions: MCF7, 48 h.
In test [2] the test system is PC-3. Briefly: Induction of apoptosis in human PC-3 cells assessed as increase in cleaved PARP incubated for 24 hrs by Western blot analysis. Format: functional, cell-based. Conditions: dose 3-30 µM. (In general: In western blotting, separated proteins are transferred to a membrane and probed.)
Test [3] has as its system MCF7. Briefly: Induction of apoptosis in human MCF7 cells assessed as increase in caspase-3 activity at 10 uM incubated for 24 hrs in presence of Ac-DEVD-CHO by Hoechst 33342 dye based fluorescence assay. Format: functional, cell-based.
Test [4] deals with MCF7. Briefly: Cytotoxicity against human MCF7 cells assessed as cell viability at 30 uM incubated for 48 hrs by MTS assay relative to control. Conditions: read-out: Activity. Format: functional. On the technique in general: Formazan colour is commonly taken as a measure of viable cells.
Test [5] deals with MCF7. Briefly: Induction of apoptosis in human MCF7 cells assessed as increase in cleaved PARP incubated for 24 hrs by Western blot analysis. Format: functional, cell-based.
For test [6], the system named is MCF7. Briefly: Antimigratory activity against human MCF7 cells assessed as reduction in cell migration measured every 2 hrs for 24 hrs by wound healing assay. Format: functional, cell-based. Conditions: dose 1-10 µM.
For test [7], the system named is PC-3. Briefly: Induction of apoptosis in human PC-3 cells assessed as increase in caspase-3 activity at 10 uM incubated for 24 hrs by Hoechst 33342 staining based fluorescence microscopy. Format: functional, cell-based.
The subject of test [8] is PC-3. Briefly: Cytotoxicity against human PC-3 cells assessed as cell viability at 30 uM incubated for 48 hrs by MTS assay relative to control. Format: functional. Conditions: read-out: Activity.
The subject of test [9] is PC-3. Briefly: Induction of apoptosis in human PC-3 cells assessed as increase in caspase-3 activity at 10 uM incubated for 24 hrs in presence of Ac-DEVD-CHO by Hoechst 33342 dye based fluorescence assay. It is filed as functional, cell-based.
Test [10] deals with PC-3. Briefly: Induction of apoptosis in human PC-3 cells assessed as increase in caspase-3 activity incubated for 24 hrs by caspase-3 substrate and Hoechst 33342 dye based fluorescence assay. Conditions: dose 1-10 µM. Format: functional, cell-based.
Test [11] relates to MCF7. Briefly: Induction of apoptosis in human MCF7 cells assessed as increase in caspase-3 activity incubated for 24 hrs by caspase-3 substrate and Hoechst 33342 dye based fluorescence assay. It is filed as functional, cell-based. Conditions: dose 1-10 µM.
The subject of test [12] is PC-3. Briefly: Antimigratory activity against human PC-3 cells assessed as reduction in cell migration measured every 2 hrs for 24 hrs by wound healing assay. Format: functional, cell-based. Conditions: dose 1-10 µM.
The subject of test [13] is MCF7. Briefly: Induction of apoptosis in human MCF7 cells assessed as increase in caspase-3 activity at 10 uM incubated for 24 hrs by Hoechst 33342 staining based fluorescence microscopy. It is filed as functional, cell-based.
Test [14] has as its system PC-3. Briefly: Cytotoxicity against human PC-3 cells assessed as reduction in cell viability incubated for 48 hrs by MTS assay. Conditions: PC-3, 48 h. Format: functional, cell-based.

Regarding `O=C(C[N+]1=Cc2cccn2[C@H](C(=O)c2ccc(F)cc2)[C@H]1c1ccc(Br)cc1)c1ccccc1` (relative stereo), the IC50 worked out at 1950 nM in test [1] and 1180 nM in [14]. The Activity result in test [2], in test [5], in test [10] and in [11] was “Dose-dependent effect” each time. The result in test [3] and in [9] was inactive. Also, the viability at 30 µM in test [4] is 3.6%; in test [8], 3.4%. The inhibition result in [6] and in [12] was “Dose-dependent effect” each time. Moreover, the result in test [7] and in test [13] was Active.
On to `O=C(C[N+]1=Cc2cccn2[C@H](C(=O)c2ccc(Br)cc2)[C@H]1c1ccccc1)c1ccccc1` (relative stereo), for which the figures for the half-inhibitory concentration (IC50) in [1] and in [14] were 3650 nM and 3450 nM, respectively. In addition, the Activity entry in test [2], in [5], in test [10] and in test [11] was “Dose-dependent effect” in each case. The outcome in [3] and in test [9] was inactive. Besides, the results for the viability at 30 µM in test [4] and in test [8] were 25.5% and 9.1%, respectively. Besides, the inhibition result in test [6] and in [12] was “Dose-dependent effect” each time. Besides, the result in test [7] and in test [13] was Active.

A word on the IC50: it is the concentration that gives 50% inhibition.
